# Measurements as given in patent US20080009418A1, “Selective Inhibitors” (Alchemia LTD., priority 2004, published 2008).
# Key:
# Human neurokinin (NK1) = target: T1, Human neurokinin (NK1) (Homo sapiens, UniProt P25103); experiment: Radioligand binding, human neurokinin NK1 membranes, filtration, [125I]-Substance P; settings: compound at 10 μM, [125I]-Substance P
# T1 construct: purchased Perkin Elmer Biosignal
# Procedure, shortened: (§1)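 Membranes from cloned human receptors were incubated with compound and radioligand for 1 hour at room temperature. Bound ligand was collected on 0.3% PEI-soaked filters, washed with cold 50 mM Tris-HCl pH 7.4, and counted by scintillation. Percent inhibition was computed against DMSO totals and reference-ligand nonspecific wells.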
# Human Melanocortin (MC4) = target: T2, Human Melanocortin (MC4) (Homo sapiens, UniProt P32245); experiment: Radioligand binding, human melanocortin MC4 membranes, FlashPlate, [125I]-NDP-αMSH; settings: compound at 10 μM, [125I]-NDP-αMSH
# T2 construct: purchased Perkin Elmer Biosignal
# Procedure, shortened: (§2)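 Cloned human receptor membranes were coated onto FlashPlate wells and incubated with radioligand and compound (added from a 0.5 mM DMSO daughter plate) for 1 hour at room temperature in the dark. Scintillation counting gave percent inhibition, with DMSO defining total and reference ligand defining non-specific binding.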
# [1] = target: T3, Human melanin-concentrating hormone (MCH1) (Homo sapiens, UniProt Q99705); experiment: Radioligand binding, human melanin-concentrating hormone MCH1 membranes, FlashPlate, [125I]-S36057; settings: compound at 10 μM
# T3 construct: purchased Perkin Elmer Biosignal
# Procedure, shortened: as §2
# Human δ-opioid (DOP) = target: T4, Human δ-opioid (DOP) (Homo sapiens, UniProt P41143); experiment: Radioligand binding, human δ-opioid (DOP) membranes, FlashPlate, [3H]-Bremazocine; settings: compound at 10 μM, [3H]-Bremazocine
# T4 construct: purchased Perkin Elmer Biosignal
# Procedure, shortened: as §2
# Human κ-Opioid (KOP) = target: T5, Human κ-Opioid (KOP) (Homo sapiens, UniProt P41145); experiment: Radioligand binding, human κ-opioid (KOP) membranes, filtration, [3H]-Diprenorphine; settings: compound at 10 μM, [3H]-Diprenorphine
# T5 construct: purchased Perkin Elmer Biosignal
# Procedure, shortened: as §1
# [2] = target: T6, Human neuropeptide Y (NPY-Y1) (Homo sapiens, UniProt P25929); experiment: Radioligand binding, human neuropeptide Y NPY-Y1 membranes, FlashPlate, [125I]-PYY; settings: compound at 10 μM, [125I]-PYY
# T6 construct: purchased Perkin Elmer Biosignal
# T6 sequence (P25929 1-384): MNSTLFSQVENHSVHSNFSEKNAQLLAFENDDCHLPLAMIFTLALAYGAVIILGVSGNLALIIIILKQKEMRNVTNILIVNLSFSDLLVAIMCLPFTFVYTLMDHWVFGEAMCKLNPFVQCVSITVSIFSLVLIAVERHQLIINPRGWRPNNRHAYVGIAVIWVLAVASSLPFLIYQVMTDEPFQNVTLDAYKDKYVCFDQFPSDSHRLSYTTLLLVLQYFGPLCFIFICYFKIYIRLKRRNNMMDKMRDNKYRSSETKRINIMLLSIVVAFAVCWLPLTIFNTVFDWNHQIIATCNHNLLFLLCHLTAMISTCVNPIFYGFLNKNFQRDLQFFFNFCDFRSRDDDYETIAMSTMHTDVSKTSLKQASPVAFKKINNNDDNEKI
# Procedure, shortened: as §2
# Human Melanocortin (MC3) = target: T7, Human Melanocortin (MC3) (Homo sapiens, UniProt P41968); experiment: Radioligand binding, human melanocortin MC3 membranes, FlashPlate, [125I]-NDP-αMSH; settings: compound at 10 μM, [125I]-NDP-αMSH
# T7 construct: purchased Perkin Elmer Biosignal
# Procedure, shortened: as §2
# Human melanocortin (MC5) = target: T8, Human melanocortin (MC5) (Homo sapiens, UniProt P33032); experiment: Radioligand binding, human melanocortin MC5 membranes, FlashPlate, [125I]-NDP-αMSH; settings: compound at 10 μM, [125I]-NDP-αMSH
# T8 construct: purchased Perkin Elmer Biosignal
# Procedure, shortened: as §2
# Human μ-opioid (MOP) = target: T9, Human μ-opioid (MOP) (Homo sapiens, UniProt P35372); experiment: Radioligand binding, human μ-opioid (MOP) membranes, FlashPlate, [3H]-Naloxone; settings: compound at 10 μM, [3H]-Naloxone
# T9 construct: purchased Perkin Elmer Biosignal
# Procedure, shortened: as §2
# Human opioid (ORL1) = target: T10, Human opioid (ORL1) (Homo sapiens, UniProt P41146); experiment: Radioligand binding, human opioid ORL1 membranes, FlashPlate, [125I]-Nociceptin; settings: compound at 10 μM, [125I]-Nociceptin
# T10 construct: purchased Perkin Elmer Biosignal
# Procedure, shortened: as §2
# Mouse urotensin (mUR2) = target: T11, Mouse urotensin (mUR2) (Mus musculus, UniProt Q8VIH9); experiment: Radioligand binding, mouse urotensin mUR2 membranes, FlashPlate, [125I]-Urotensin II; settings: compound at 10 μM, [125I]-Urotensin II
# T11 construct: purchased Perkin Elmer Biosignal
# T11 sequence (Q8VIH9 1-385): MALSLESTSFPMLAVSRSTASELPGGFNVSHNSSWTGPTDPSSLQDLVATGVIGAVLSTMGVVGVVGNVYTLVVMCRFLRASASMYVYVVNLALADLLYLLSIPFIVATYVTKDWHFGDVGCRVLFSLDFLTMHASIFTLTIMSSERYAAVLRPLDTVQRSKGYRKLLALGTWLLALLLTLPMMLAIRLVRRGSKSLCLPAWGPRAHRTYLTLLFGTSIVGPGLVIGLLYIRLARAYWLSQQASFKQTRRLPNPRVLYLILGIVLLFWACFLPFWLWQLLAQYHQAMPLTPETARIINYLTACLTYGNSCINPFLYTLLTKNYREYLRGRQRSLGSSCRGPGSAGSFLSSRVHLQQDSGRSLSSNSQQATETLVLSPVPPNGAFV
# Procedure, shortened: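 Cloned mouse urotensin (mUR2) receptor membranes from Perkin Elmer Biosignal were immobilized in FlashPlate microplates using a proprietary coating. Each well got 19.5 μl buffer, then 0.5 μl of DMSO, reference ligand, or compound. Adding 5 μl of [125I]-Urotensin II, diluted to 5× final concentration in binding buffer, started binding. Plates were sealed with TopSeal-A and incubated 1 hour at room temperature in the dark. Wells were counted for 30 seconds each on a TopCount after a 60-second delay, and percentage inhibition was calculated.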
# T3 sequence (Q99705 whole entry): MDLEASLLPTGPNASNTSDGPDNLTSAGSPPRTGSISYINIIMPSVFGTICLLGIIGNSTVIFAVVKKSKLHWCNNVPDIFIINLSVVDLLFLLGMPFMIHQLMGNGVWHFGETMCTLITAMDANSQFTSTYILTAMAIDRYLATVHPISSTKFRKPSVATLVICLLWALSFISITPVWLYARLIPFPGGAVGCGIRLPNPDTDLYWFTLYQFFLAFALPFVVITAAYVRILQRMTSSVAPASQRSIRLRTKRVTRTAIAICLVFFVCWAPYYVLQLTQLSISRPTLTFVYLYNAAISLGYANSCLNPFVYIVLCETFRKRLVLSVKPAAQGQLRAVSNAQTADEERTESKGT
# T10 sequence (P41146 whole entry): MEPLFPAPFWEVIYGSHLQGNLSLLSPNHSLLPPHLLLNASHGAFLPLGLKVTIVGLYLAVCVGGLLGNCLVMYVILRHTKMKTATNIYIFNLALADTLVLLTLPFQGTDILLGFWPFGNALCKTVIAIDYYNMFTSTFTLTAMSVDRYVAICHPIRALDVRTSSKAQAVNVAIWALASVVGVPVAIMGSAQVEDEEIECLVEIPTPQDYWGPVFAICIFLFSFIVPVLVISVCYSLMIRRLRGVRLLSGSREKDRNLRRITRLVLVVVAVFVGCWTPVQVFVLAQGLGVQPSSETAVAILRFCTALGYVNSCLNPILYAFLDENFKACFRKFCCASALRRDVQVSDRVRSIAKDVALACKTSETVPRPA
# T8 sequence (P33032 whole entry): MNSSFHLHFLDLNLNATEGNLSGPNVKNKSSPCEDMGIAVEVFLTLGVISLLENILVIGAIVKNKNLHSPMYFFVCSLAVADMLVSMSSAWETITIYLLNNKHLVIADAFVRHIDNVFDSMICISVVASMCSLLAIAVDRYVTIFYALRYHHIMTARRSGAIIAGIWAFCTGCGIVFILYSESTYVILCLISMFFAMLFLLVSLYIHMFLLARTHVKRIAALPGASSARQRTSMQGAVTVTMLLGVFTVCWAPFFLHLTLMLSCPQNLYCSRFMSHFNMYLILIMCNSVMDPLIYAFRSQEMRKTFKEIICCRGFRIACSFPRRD
# T2 sequence (P32245 whole entry): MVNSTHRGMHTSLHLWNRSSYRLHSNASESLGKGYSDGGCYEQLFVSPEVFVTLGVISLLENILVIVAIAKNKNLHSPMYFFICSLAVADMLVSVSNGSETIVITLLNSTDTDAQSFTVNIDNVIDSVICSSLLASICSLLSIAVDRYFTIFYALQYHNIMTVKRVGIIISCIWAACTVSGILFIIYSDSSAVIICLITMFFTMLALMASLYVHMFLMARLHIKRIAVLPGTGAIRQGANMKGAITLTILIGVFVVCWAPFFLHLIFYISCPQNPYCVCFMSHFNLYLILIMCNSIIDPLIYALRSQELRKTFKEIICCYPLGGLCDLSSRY
# T9 sequence (P35372 whole entry): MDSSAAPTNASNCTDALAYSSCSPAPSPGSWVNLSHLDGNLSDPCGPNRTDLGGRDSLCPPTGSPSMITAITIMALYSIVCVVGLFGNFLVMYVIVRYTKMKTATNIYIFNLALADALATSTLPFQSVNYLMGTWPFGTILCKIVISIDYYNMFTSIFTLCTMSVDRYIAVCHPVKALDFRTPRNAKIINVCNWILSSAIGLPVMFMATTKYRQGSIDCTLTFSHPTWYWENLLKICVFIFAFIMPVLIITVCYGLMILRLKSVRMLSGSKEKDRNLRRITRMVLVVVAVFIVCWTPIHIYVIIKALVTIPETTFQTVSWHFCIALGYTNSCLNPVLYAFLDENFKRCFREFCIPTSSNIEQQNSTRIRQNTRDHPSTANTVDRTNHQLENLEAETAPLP
# T7 sequence (P41968 whole entry): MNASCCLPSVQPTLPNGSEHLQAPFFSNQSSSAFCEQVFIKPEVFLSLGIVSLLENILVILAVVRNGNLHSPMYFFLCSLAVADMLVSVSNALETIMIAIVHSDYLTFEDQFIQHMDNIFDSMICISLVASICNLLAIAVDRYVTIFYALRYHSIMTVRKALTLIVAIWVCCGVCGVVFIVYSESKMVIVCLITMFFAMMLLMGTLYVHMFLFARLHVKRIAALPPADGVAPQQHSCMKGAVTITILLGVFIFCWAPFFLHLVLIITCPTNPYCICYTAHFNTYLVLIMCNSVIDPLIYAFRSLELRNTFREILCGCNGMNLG
# T1 sequence (P25103 whole entry): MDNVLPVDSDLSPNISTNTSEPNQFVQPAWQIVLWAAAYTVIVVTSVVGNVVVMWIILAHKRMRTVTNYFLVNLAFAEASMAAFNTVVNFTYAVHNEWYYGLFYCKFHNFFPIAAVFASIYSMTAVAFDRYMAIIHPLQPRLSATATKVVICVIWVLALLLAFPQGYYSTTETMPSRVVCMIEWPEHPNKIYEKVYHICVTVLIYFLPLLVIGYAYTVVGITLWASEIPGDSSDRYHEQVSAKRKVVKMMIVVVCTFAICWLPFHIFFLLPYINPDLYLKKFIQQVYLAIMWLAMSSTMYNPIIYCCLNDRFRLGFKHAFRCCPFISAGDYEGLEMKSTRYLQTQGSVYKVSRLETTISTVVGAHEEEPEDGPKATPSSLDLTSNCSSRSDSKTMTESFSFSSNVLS
# T4 sequence (P41143 whole entry): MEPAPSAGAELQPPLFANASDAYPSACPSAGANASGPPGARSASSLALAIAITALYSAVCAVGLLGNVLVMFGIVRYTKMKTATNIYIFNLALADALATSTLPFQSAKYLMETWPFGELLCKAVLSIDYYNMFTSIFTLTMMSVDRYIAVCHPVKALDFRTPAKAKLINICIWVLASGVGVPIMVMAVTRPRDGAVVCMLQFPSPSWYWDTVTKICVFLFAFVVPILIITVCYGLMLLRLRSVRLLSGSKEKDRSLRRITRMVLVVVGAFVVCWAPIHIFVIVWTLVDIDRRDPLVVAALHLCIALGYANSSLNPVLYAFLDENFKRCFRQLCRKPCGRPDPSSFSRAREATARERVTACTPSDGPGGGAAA
# T5 sequence (P41145 whole entry): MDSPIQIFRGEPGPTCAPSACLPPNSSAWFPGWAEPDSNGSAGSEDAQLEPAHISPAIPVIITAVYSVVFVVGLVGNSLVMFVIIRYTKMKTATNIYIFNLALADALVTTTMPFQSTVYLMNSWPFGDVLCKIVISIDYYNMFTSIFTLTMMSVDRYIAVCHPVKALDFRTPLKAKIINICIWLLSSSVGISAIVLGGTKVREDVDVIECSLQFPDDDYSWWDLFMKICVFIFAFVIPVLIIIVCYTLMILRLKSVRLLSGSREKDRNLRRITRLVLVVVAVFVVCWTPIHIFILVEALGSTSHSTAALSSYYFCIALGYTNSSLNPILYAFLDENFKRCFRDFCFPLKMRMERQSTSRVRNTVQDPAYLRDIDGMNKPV
smiles,measurement,setting,value
"NCCC(=O)NC1C(OCc2ccc(Cl)cc2)OC(COCc2ccccc2)C(O)C1OCc1ccccc1 (single isomer, unassigned) [compound 485]","A8: inhibition of radioligand binding, human neurokinin (NK1)",Human neurokinin (NK1),+ (“+” indicates greater than 50% inhibition at 10 μM)
same,"A4: inhibition of radioligand binding, human melanocortin (MC4)",Human Melanocortin (MC4),− (“−” indicates less than 50% inhibition at 10 μM)
same,"A6: inhibition of radioligand binding, human melanin-concentrating hormone (MCH1)",[1]; [125I]-S36057,− (“−” indicates less than 50% inhibition at 10 μM)
same,"A1: inhibition of radioligand binding, human δ-opioid (DOP)",Human δ-opioid (DOP),− (“−” indicates less than 50% inhibition at 10 μM)
same,"A2: inhibition of radioligand binding, human κ-opioid (KOP)",Human κ-Opioid (KOP),− (“−” indicates less than 50% inhibition at 10 μM)
same,"A9: inhibition of radioligand binding, human neuropeptide Y (NPY-Y1)",[2],− (“−” indicates less than 50% inhibition at 10 μM)
same,"A3: inhibition of radioligand binding, human melanocortin (MC3)",Human Melanocortin (MC3),− (“−” indicates less than 50% inhibition at 10 μM)
same,"A5: inhibition of radioligand binding, human melanocortin (MC5)",Human melanocortin (MC5),− (“−” indicates less than 50% inhibition at 10 μM)
same,"A7: inhibition of radioligand binding, human μ-opioid (MOP)",Human μ-opioid (MOP),− (“−” indicates less than 50% inhibition at 10 μM)
same,"A10: inhibition of radioligand binding, human opioid (ORL1)",Human opioid (ORL1),− (“−” indicates less than 50% inhibition at 10 μM)
same,"A11: inhibition of radioligand binding, mouse urotensin (mUR2)",Mouse urotensin (mUR2),− (“−” indicates less than 50% inhibition at 10 μM)
N=C(N)NCCC(=O)N[C@H]1C(OCc2ccc(Cl)cc2)O[C@H](COCc2ccccc2)[C@@H](O)[C@@H]1OCc1ccc(Cl)cc1 (stereo partly shown) [compound 524],"A8: inhibition of radioligand binding, human neurokinin (NK1)",Human neurokinin (NK1),+ (“+” indicates greater than 50% inhibition at 10 μM)
same,"A4: inhibition of radioligand binding, human melanocortin (MC4)",Human Melanocortin (MC4); 10 µM,− (“−” indicates less than 50% inhibition at 10 μM)
same,"A6: inhibition of radioligand binding, human melanin-concentrating hormone (MCH1)",[1]; [125I]-S36057,+ (“+” indicates greater than 50% inhibition at 10 μM)
same,"A1: inhibition of radioligand binding, human δ-opioid (DOP)",Human δ-opioid (DOP),− (“−” indicates less than 50% inhibition at 10 μM)
same,"A2: inhibition of radioligand binding, human κ-opioid (KOP)",Human κ-Opioid (KOP); 10 µM,− (“−” indicates less than 50% inhibition at 10 μM)
same,"A9: inhibition of radioligand binding, human neuropeptide Y (NPY-Y1)",[2],− (“−” indicates less than 50% inhibition at 10 μM)
same,"A3: inhibition of radioligand binding, human melanocortin (MC3)",Human Melanocortin (MC3); 10 µM,− (“−” indicates less than 50% inhibition at 10 μM)
same,"A5: inhibition of radioligand binding, human melanocortin (MC5)",Human melanocortin (MC5),+ (“+” indicates greater than 50% inhibition at 10 μM)
same,"A7: inhibition of radioligand binding, human μ-opioid (MOP)",Human μ-opioid (MOP),− (“−” indicates less than 50% inhibition at 10 μM)
same,"A10: inhibition of radioligand binding, human opioid (ORL1)",Human opioid (ORL1),− (“−” indicates less than 50% inhibition at 10 μM)
same,"A11: inhibition of radioligand binding, mouse urotensin (mUR2)",Mouse urotensin (mUR2),− (“−” indicates less than 50% inhibition at 10 μM)
CSC1OC(COCc2ccc(Cl)cc2)C(O)C(OCc2ccc(Cl)cc2)C1NC(=O)CN (stereo not shown) [compound 269],A8: inhibition of radioligand binding,Human neurokinin (NK1); filtration,+ (“+” indicates greater than 50% inhibition at 10 μM)
same,A4: inhibition of radioligand binding,Human Melanocortin (MC4); FlashPlate,− (“−” indicates less than 50% inhibition at 10 μM)
same,A6: inhibition of radioligand binding,"[1]; [125I]-S36057, FlashPlate",− (“−” indicates less than 50% inhibition at 10 μM)
same,A1: inhibition of radioligand binding,Human δ-opioid (DOP); FlashPlate,− (“−” indicates less than 50% inhibition at 10 μM)
same,A2: inhibition of radioligand binding,Human κ-Opioid (KOP); filtration,− (“−” indicates less than 50% inhibition at 10 μM)
same,A9: inhibition of radioligand binding,[2]; FlashPlate,− (“−” indicates less than 50% inhibition at 10 μM)
same,A3: inhibition of radioligand binding,Human Melanocortin (MC3); FlashPlate,− (“−” indicates less than 50% inhibition at 10 μM)
same,A5: inhibition of radioligand binding,Human melanocortin (MC5); FlashPlate,− (“−” indicates less than 50% inhibition at 10 μM)
same,A7: inhibition of radioligand binding,Human μ-opioid (MOP); FlashPlate,− (“−” indicates less than 50% inhibition at 10 μM)
same,A10: inhibition of radioligand binding,Human opioid (ORL1); FlashPlate,− (“−” indicates less than 50% inhibition at 10 μM)
same,A11: inhibition of radioligand binding,Mouse urotensin (mUR2); FlashPlate,− (“−” indicates less than 50% inhibition at 10 μM)
CO[C@H]1[C@H](O)[C@@H](COCc2cccc(O)c2)OC(OCc2ccc3ccccc3c2)[C@@H]1NC(=O)CCNC(=N)N (stereo partly shown) [compound 151],"A8 radioligand binding, percentage inhibition",Human neurokinin (NK1),− (“−” indicates less than 50% inhibition at 10 μM)
same,"A4 radioligand binding, percentage inhibition",Human Melanocortin (MC4),− (“−” indicates less than 50% inhibition at 10 μM)
same,"A6 radioligand binding, percentage inhibition",[1]; [125I]-S36057,− (“−” indicates less than 50% inhibition at 10 μM)
same,"A1 radioligand binding, percentage inhibition",Human δ-opioid (DOP),− (“−” indicates less than 50% inhibition at 10 μM)
same,"A2 radioligand binding, percentage inhibition",Human κ-Opioid (KOP),− (“−” indicates less than 50% inhibition at 10 μM)
same,"A9 radioligand binding, percentage inhibition",[2],− (“−” indicates less than 50% inhibition at 10 μM)
same,"A3 radioligand binding, percentage inhibition",Human Melanocortin (MC3),− (“−” indicates less than 50% inhibition at 10 μM)
same,"A5 radioligand binding, percentage inhibition",Human melanocortin (MC5),− (“−” indicates less than 50% inhibition at 10 μM)
same,"A7 radioligand binding, percentage inhibition",Human μ-opioid (MOP),+ (“+” indicates greater than 50% inhibition at 10 μM)
same,"A10 radioligand binding, percentage inhibition",Human opioid (ORL1),− (“−” indicates less than 50% inhibition at 10 μM)
same,"A11 radioligand binding, percentage inhibition",Mouse urotensin (mUR2),− (“−” indicates less than 50% inhibition at 10 μM)
NCCC(=O)NC1C(OCc2ccc3ccccc3c2)OC(COCc2ccc(Cl)cc2)C(O)C1OCc1ccccc1 (stereo not shown) [compound 389],A8: inhibition of radioligand binding,Human neurokinin (NK1); human NK1 membranes,+ (“+” indicates greater than 50% inhibition at 10 μM)
same,A4: inhibition of radioligand binding,Human Melanocortin (MC4); human MC4 membranes,+ (“+” indicates greater than 50% inhibition at 10 μM)
same,A6: inhibition of radioligand binding,"[1]; [125I]-S36057, human MCH1 membranes, 10 µM",− (“−” indicates less than 50% inhibition at 10 μM)
same,A1: inhibition of radioligand binding,Human δ-opioid (DOP); human DOP membranes,− (“−” indicates less than 50% inhibition at 10 μM)
same,A2: inhibition of radioligand binding,Human κ-Opioid (KOP); human KOP membranes,− (“−” indicates less than 50% inhibition at 10 μM)
same,A9: inhibition of radioligand binding,[2]; human NPY-Y1 membranes,− (“−” indicates less than 50% inhibition at 10 μM)
same,A3: inhibition of radioligand binding,"Human Melanocortin (MC3); human MC3 membranes, 10 µM",+ (“+” indicates greater than 50% inhibition at 10 μM)
same,A5: inhibition of radioligand binding,Human melanocortin (MC5); human MC5 membranes,+ (“+” indicates greater than 50% inhibition at 10 μM)
same,A7: inhibition of radioligand binding,Human μ-opioid (MOP); human MOP membranes,− (“−” indicates less than 50% inhibition at 10 μM)
same,A10: inhibition of radioligand binding,"Human opioid (ORL1); human ORL1 membranes, 10 µM",+ (“+” indicates greater than 50% inhibition at 10 μM)
same,A11: inhibition of radioligand binding,Mouse urotensin (mUR2); mouse mUR2 membranes,− (“−” indicates less than 50% inhibition at 10 μM)
